Measured values taken from the NIST ThermoML archive (doi:10.1021/je400581e).

Tests used:
[1] = refractive index (Na D-line) (dimensionless); settings: 298.15 K; 101.33 kPa; Liquid; Standard Abbe refractometry
[2] = Liquid; for mass density: 298.15 K, 101.33 kPa, Vibrating tube method

CC(C)CO [2-methyl-1-propanol]
Settings	mass density [kg/m3]	refractive index
[1]	–	1.3927
[2]	795.35	–

[2], Ebulliometric method (Recirculating still)
Settings	vapor or sublimation pressure [kPa]
347.84 K	26.2
351.07 K	30.19
359.54 K	43.66
362.99 K	50.45
368.56 K	63.25
372.09 K	72.73
372.56 K	74.66
375.06 K	81.58
378.19 K	91.8
380.73 K	101.32
382.25 K	106.5

CC(C)CCO [3-methylbutan-1-ol]
Settings	mass density [kg/m3]	refractive index
[1]	–	1.4035
[2]	806.21	–

[2]
Settings	vapor or sublimation pressure [kPa]
395.68 K	74.7
404.7 K	101.3
404.71 K	101.3

CC(C)O [propan-2-ol]
Settings	mass density [kg/m3]	refractive index
[1]	–	1.374
[2]	779.36	–

[2], Ebulliometric method (Recirculating still)
Settings	vapor or sublimation pressure [kPa]
325.2 K	26.21
328 K	30.2
335.73 K	43.66
338.88 K	50.43
343.99 K	63.24
347.25 K	72.74
347.86 K	74.65
349.98 K	81.59
352.84 K	91.8
355.37 K	101.3
356.56 K	106.52
